Results as given in patent US10912777B2 (Academia Sinica, priority 2016, dated 2021).
Read-outs that look alike come from different tables or passages of the source.

Columns and labels:
[1] = test system: HCC cell lines; conditions: HCC cell lines carrying amplified SLC29A2 vs non-amplified cells; FIG. 5A
Experimental: The cell proliferation and cell viability were detected by […] BLUE® reagent (DAL1100, Thermo Fisher) according to the manufacturer's instruction. […] BLUE® for incubation at 37° C. for 1 hour. The ALAMAR BLUB® fluorescence was excited at 560 nm and measured at 590 nm.

[2] = test system: SK-hep1 cells; assay: Cell viability assay (ALAMAR BLUE), SK-hep1 cells with or without ectopic SLC29A2; assay type: cell-based
Experimental: HCC cell lines (Sk-hep1 and Mahlavu) were maintained in Dulbecco's modified Eagle's medium (DMEM) with 10% fetal bovine serum, 1% non-essential amino acid, 1% L-glutamine, and 1% penicillin/streptomycin. All cells were tested for mycoplasma contamination.
pcDNA3.0/HA˜SLC29A2 was generated according to Chen et al. (2010) (Hepatologs, 52(5), 1690-1701), To stably express SLC29A2 or STAT3D, HCC cell lines were transfected with the plasmid according to the instruction manual by JetPrime transfection reagent (Polyplus), and further selected in the presence of G418 (SK-hep1: 800 μg/mL, Mahlavu: 500 μg/mL)

[3] = test system: SLC29A2; assay: Confocal microscopy of nuclear translocation; assay type: cell-based; conditions: FIG. 5E
Experimental: Cells were grown on glass slides. After washing with ice-cold PBS, cells were fixed with methanol, blocked with 5% BSA, and incubated with primary antibodies at 4° C. overnight. The slides were washed with PBS, and incubated with Alexa488 or AIexa594-conjugated secondary antibodies. The slides were then washed with PBS, stained with DAPI and mounted with Dako fluorescent mounting medium (#S3025, Dako). The immunostained cells were acquired by Zeiss LSM 700 laser-scanning microscope with 63X/1.4 objective. The images were analyzed with ZEN, AxioVision, and imagesJ software.

[4] = test system: Stat3; conditions: SLC29A2 ectopically expressing cells, FIG. 5D; for SLC29A2-induced Stat3 phosphorylation: 6B
[5] = test system: SLC29A2-expressing cells; assay: Trans-well (Boyden chamber) migration assay; assay type: cell-based; conditions: SLC29A2 ectopically expressing cells; FIG. 5C
Experimental: A total of 1×10^4 cells were seeded in the upper chamber of 8 micron Boyden chamber insert (#MCEP24H48, Millipore) containing a serum-free medium. The inserts were then hanged on the 24-well plate containing a complete medium. After 16 hours, the non-migrated cells were wiped out and the migrated cells were fixed with methanol and stained with Liu's stain. The migrated cells were counted by ImageJ software.

[6] = test system: luciferase-carrying SK-hep1 cells
Experimental: All animal procedures were conducted under the approval of the institutional animal care and user committee of Academia Sinica. […] The luciferase activities were detected by the IVIS Image system every two weeks, and the images were analyzed with IVIS operating software.
The mice wore sacrificed 48 weeks after the tumor injection or before the tumors grew larger than allowed. The tumor samples were collected and fixed with 4% paraformaldehyde.

[7] = test system: late-stage HCC; conditions: cited from earlier work

Row | SMILES | sensitivity of cells to dipyridamole (cell viability, IC50) [1] | sensitivity of cells to dipyridamole (cell viability) ([2]; SK-hep1 cells expressing SLC29A2 vs control cells, FIG. 5B) | Stat3 nuclear translocation [3] | nuclear translocation of SLC29A2 [3] | cyclin D1 down-regulation [4] | SLC29A2-induced Stat3 phosphorylation [4] | SLC29A2-induced Stat3 phosphorylation ([4]; listed as SLC29A2 inhibitor) | trans-well migration [5] | resistance of cells to sorafenib (cell viability) ([2]; SLC29A2 expressing cells vs control cells, FIG. 6A) | body weight changes and toxicity to mice ([6]; mouse, in vivo) | tumor burden (IVIS) ([6]; oral gavage once a day, sorafenib 10 mg/kg/day, dipyridamole 25 mg/kg/day, 6 weeks after treatment, FIG. 6D) | prolongation of overall survival ([7]; late-stage HCC patients who received sorafenib) | side effects ([7]; patients who received sorafenib)
1 | OCCN(CCO)c1nc(N2CCCCC2)c2nc(N(CCO)CCO)nc(N3CCCCC3)c2n1 [dipyridamole] | sensitive to dipyridamole compared to non-amplified cells | sensitive to dipyridamole than control cells | decreased SLC29A2 and Stat3 nuclear translocation | reduces the nuclear translocation of SLC29A2 | down-regulation of cyclin D1 was reversed | inhibits the SLC29A2-induced Stat3 phosphorylation | decreased SLC29A2-induced Stat3 phosphorylation in a dosage-dependent manner | reduced trans-well migration of SLC29A2-expressing cells |  |  |  |  | 
2 | CNC(=O)c1cc(Oc2ccc(NC(=O)Nc3ccc(Cl)c(C(F)(F)F)c3)cc2)ccn1 [sorafenib] |  |  |  |  |  |  |  |  | much more resistant to sorafenib as compared to the control cells | no significant body weight changes and toxicity | reduced the tumor burden in both SLC29A2-expressing and control groups | 3˜6 months | severe side effects
